Results: patent US11655468B2, “Methods and compositions of chemically modified phage libraries” (priority 2018, dated 2023)
“Also recorded” adds a separate entry of the source. Read-outs that look alike come from different tables or passages of the source. Non-standard residues stand in square brackets, D forms with d. Residues, ends and D or L forms follow the SMILES beside them. *: point of attachment. X2 = O=C1OC2(c3ccc(C(=O)*)cc31)c1cc(Br)c(O)c(Br)c1Oc1c2cc(Br)c(O)c1Br; 5FAM = O=C1OC2(c3ccc(O)cc3Oc3cc(O)ccc32)c2ccc(C(=O)*)cc21; X1 = CC(=O)c1ccc(OCCCNC(=O)C*)cc1B(O)O; Dap = NC[C@H](N)C(=O)O

Key:
S. aureus [1] = test: Flow cytometry analysis of S. aureus staining by FAM-labeled peptides; assay type: cell-based, S. aureus (ATCC 6538); details: for S. aureus staining of control peptides: 1 μM peptide, 1 mg/mL BSA (FIG. 2C)
Experimental: (§1) Each bacterial strain was grown to an OD600˜0.5, washed and diluted with PBS (pH 7.4). The cells (˜1×10^7 cfu/mL) were incubated with various concentrations of FAM-labeled peptide with or without BSA in PBS. After incubation for 1 hour, samples were subjected to cytometric analysis. Data obtained was analyzed via BD FACSDiva software and median fluorescent values were computed from the generated histograms. All flow cytometry experiments were repeated and generated consistent results (see FIG. 14).

S. aureus [2] = test: Fluorescence microscopy of S. aureus staining by TAMRA-labeled peptides; assay type: cell-based, S. aureus (ATCC 6538)
Experimental: (§2) Each bacterial strain was grown to an OD600˜1.0, washed and diluted with PBS (pH 7.4). The cells (˜1×10^9 cfu/mL) were incubated with various concentrations of TAMRA-labeled peptide with or without BSA in PBS for 1 hour. The same microscopy procedure described was implemented using filter set 20 HE (excitation: BP 546/12, emission: BP 607/80) suitable for detection of TAMRA fluorescence and images were processed consistently using ImageJ software.

Escherichia coli = test: Flow cytometry and fluorescence microscopy of E. coli staining; assay type: cell-based
Experimental: as §1, §2

A. baumannii (LOS−) [3] = test: Flow cytometry analysis of A. baumannii (LOS−) staining; assay type: cell-based, A. baumannii (AB5075 LOS−); details: for binding of negative controls to A. baumannii (LOS−) compared with KAM8: 1 μM, 1 mg/mL BSA (FIG. 21B)
Experimental: as §1

A. baumannii (LOS−) [4] = test: Fluorescence microscopy of A. baumannii (LOS−) staining; assay type: cell-based, A. baumannii (AB5075 LOS−); details: TAMRA labeled peptide, 2 μM
Experimental: as §2

[5] = system: wild type A. baumannii (LOS+); test: Fluorescence microscopy and flow cytometry of wild type A. baumannii (LOS+) staining; assay type: cell-based, A. baumannii (AB5075); details: microscopy, same conditions as LOS− strain (legend FIG. 5B: 10 μM for LOS+)
Experimental: as §1, §2

LOS− A. baumannii = test: Photoinactivation of bacteria, A. baumannii (LOS−); assay type: cell-based, A. baumannii (AB5075 LOS−); details: for A. baumannii (LOS−) cell death by controls: at these concentrations, photoirradiation (FIG. 5C)
Experimental: (§3) Each bacterial strain was grown to an OD600˜0.7, washed and diluted with PBS (pH 7.4). The cells (˜1×10^8 cfu/mL) were incubated with eosin-conjugated peptides and various controls for 15 minutes. Half of the bacterial suspension was removed and placed in a 96-well plate (Corning 3595). The well was subjected to photoirradiation on the Zeiss microscope using the 20× objective and fluorescein filter to emit blue light for 15 minutes. Cells were diluted in LB media, spread on LB agar plates and incubated overnight at 37° C. The A. baumannii (LOS−) strain was spread on LB agar (+10 μg/mL polymyxin b) and incubated for 24 hours. The amount of cell killing was calculated by comparing the amount of colonies of treated bacteria to an untreated PBS control. All experiments were repeated and the average cell killing of two trials was plotted.

[6] = system: wild-type (LOS+) A. baumannii; test: Photoinactivation of bacteria, A. baumannii (LOS+); assay type: cell-based, A. baumannii (AB5075); details: same conditions, 2 μM, photoirradiation (FIG. 5D)
Experimental: as §3

S. aureus [7] = assay type: cell-based, S. aureus (ATCC 6538); details: for S. aureus cell death by controls: 1 μM and 2 μM, photoirradiation
Experimental: as §3

MRSA = test: Photoinactivation of bacteria, MRSA; assay type: cell-based, S. aureus (ATCC 43300); details: same experimental conditions, photoirradiation (FIG. 19)
Experimental: as §3

B. subtilis = test: Photoinactivation of bacteria, B. subtilis; assay type: cell-based; details: 2 μM peptide followed by photoirradiation
Experimental: as §3

E. coli = test: Photoinactivation of bacteria, E. coli; assay type: cell-based; details: 2 μM peptide followed by photoirradiation
Experimental: as §3

HEK293T cells = details: MTT, 24 hrs, with or without photoirradiation
Experimental: HEK293T cells were grown in complete DMEM (containing 10% FBS, 2 mM glutamine and 1% Penicillin/Streptomycin) to about 80% confluency in a 150 mm dish. Cells were removed from the plate with 0.25% trypsin protease solution (containing EDTA) at 37° C. for 5 minutes and pelleted (3,500 rpm, 5 minutes). Cells were diluted in DMEM, distributed to a 96-well plate (Corning 3595) at 30,000 cells/well (100 μL/well) and incubated for 24 hours to allow for cell adherence. 1 μL of 100× DMSO solutions were added to each well and incubations/photoirradiation were performed as described above. After 24 hours, the supernatant culture medium was carefully removed and the cells were incubated with 100 μL MTT (0.5 mg/mL in RPMI) for 4 hours followed by the addition of 10% SDS in 0.01 M HCl (100 μL) and incubation overnight.
(§5) All incubations were performed at 37° C. and 5% CO2. Absorbance readings were measured at 570 nm and cell viability was normalized to the DMSO control as an average of three trials for non-irradiated samples and an average of two trials for photoirradiated samples with standard deviations.

Jurkat cells = details: MTT, 24 hrs, with or without photoirradiation
Experimental: Jurkat cells were cultured in RPMI 1640 (containing 10% FBS, 2 mM glutamine, 1% Penicillin/Streptomycin) and maintained at 5×10^5 cells/mL. Cells were diluted in RPMI and distributed to a 96-well plate (Corning 3595) at 50,000 cells/well (200 μL/well). […] A positive control for viability of DMSO treated cells along with a positive control for cytotoxicity of camptothecin at 50 μM (5 mM DMSO stock) were included. For photoirradiation, the cells were incubated with the compound of interest for 15 minutes, each well was irradiated for 15 minutes (see photoinactivation protocol-paragraph 0053) and the plate was returned to the incubator for the remainder of the 24 hour incubation. Cells were centrifuged for 5 minutes (180 rcf) and the supernatant culture medium was carefully removed. 100 μL of 3-(4,5-dimethylthiazol-2-yl)-2,5-diphenyltetrazolium bromide (MTT, 0.5 mg/mL in RPMI) was added to each well and incubated for 4 hours followed by the addition of 10% SDS in 0.01 M HCl (100 μL) and incubation overnight.
as §5

[8] = Aggregation of peptide in flow cytometry samples; assay type: physicochemical; details: concentrations higher than 3 μM
[9] = system: methicillin-resistant strain of S. aureus (ATCC 43300); test: Fluorescence microscopy of MRSA staining by TAMRA-labeled peptide; assay type: cell-based; details: 2 μM (FIG. 17)
Experimental: as §2

Bacillus subtilis = test: Flow cytometry and fluorescence microscopy of B. subtilis staining; assay type: cell-based; details: up to 10 μM peptide; flow cytometry with 1 mg/mL BSA and microscopy
Experimental: as §1, §2

BSA = BSA (Bos taurus, UniProt P02769); test: Fluorescence anisotropy protein binding (BSA); set-up: species or system bovine; details: 500 nM peptide, PBS pH 7.4, 1 hour, high protein concentrations
Experimental: (§4) (A) Flow cytometry comparison of HSA and BSA in enhancing KAM5 binding to S. aureus. (B) Assessing protein binding of KAM5 using fluorescence anisotropy, for which various concentrations of BSA or HSA were delivered to a 96-well plate (Corning 3603) in PBS (pH 7.4). Peptide was added at a final concentration of 500 nM and incubated for 1 hour. Anisotropy values were measured (Ex: 495 nm, Em: 532 nm) and plotted as an average of three trials with standard deviations. Fluorescein was used as a negative control. The results clearly show binding of KAM5 to these serum proteins.

HSA = HSA (Homo sapiens, UniProt P02768); test: Fluorescence anisotropy protein binding (HSA); details: 500 nM peptide, PBS pH 7.4, 1 hour, high protein concentrations
Chain of HSA (P02768 25-609): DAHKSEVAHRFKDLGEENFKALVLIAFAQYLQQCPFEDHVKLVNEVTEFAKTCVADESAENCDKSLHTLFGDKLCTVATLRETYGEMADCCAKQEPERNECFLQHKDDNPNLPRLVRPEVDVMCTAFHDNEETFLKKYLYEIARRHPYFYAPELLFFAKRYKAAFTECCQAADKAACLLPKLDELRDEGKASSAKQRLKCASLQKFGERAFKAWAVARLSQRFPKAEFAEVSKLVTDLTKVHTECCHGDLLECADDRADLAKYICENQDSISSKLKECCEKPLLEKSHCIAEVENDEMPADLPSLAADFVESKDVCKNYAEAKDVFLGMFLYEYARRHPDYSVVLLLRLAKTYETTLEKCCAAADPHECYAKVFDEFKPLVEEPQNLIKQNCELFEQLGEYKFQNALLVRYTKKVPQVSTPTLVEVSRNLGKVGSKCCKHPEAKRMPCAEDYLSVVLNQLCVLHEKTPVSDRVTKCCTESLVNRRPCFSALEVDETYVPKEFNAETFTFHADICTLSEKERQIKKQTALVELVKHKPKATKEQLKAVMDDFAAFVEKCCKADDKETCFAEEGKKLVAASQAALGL
Experimental: as §4

ACVSPRSHECGGGDap* [KAM5-Cyclic]
S. aureus staining of control peptides (S. aureus [1]; flow cytometry): little S. aureus staining

CC(=O)c1ccc(OCCCNC(=O)CSC[C@H](NC(=O)[C@H](C)N)C(=O)N[C@H](C(=O)N[C@@H](CC(C)C)C(=O)N2CCC[C@H]2C(=O)N[C@@H](CC(N)=O)C(=O)NCC(=O)N2CCC[C@H]2C(=O)N[C@@H](CCCNC(=N)N)C(=O)N[C@@H](CSCC(=O)NCCCOc2ccc(C(C)=O)c(B(O)O)c2)C(=O)NCC(=O)NCC(=O)NCC(=O)N[C@@H](CNC(=O)c2ccc3c(c2)C(=O)OC32c3ccc(O)cc3Oc3cc(O)ccc32)C(N)=O)[C@@H](C)O)cc1B(O)O [KAM8, ACmTLPNGPRCmGGGDap*] (H-AC(X1)TLPNGPRC(X1)GGG[Dap](5FAM)-NH2; N-terminus assumed)
binding to S. aureus (S. aureus [2]; TAMRA labeled peptide, 2 μM, 1 mg/mL BSA (FIG. 22)): no binding
binding to E. coli (Escherichia coli; microscopy, TAMRA labeled peptide, 2 μM, 1 mg/mL BSA (FIG. 22)): no binding
effect of BSA on binding to A. baumannii (LOS−) (A. baumannii (LOS−) [3]; 1 mg/mL BSA): enhanced bacterial staining
fluorescence staining of LOS− A. baumannii (A. baumannii (LOS−) [4]): bright fluorescence staining
fluorescence staining of wild type A. baumannii (LOS+) [5]: little fluorescence staining
A. baumannii (LOS−) cell death by controls (LOS− A. baumannii): did not elicit A. baumannii cell death

ACTLPNGPRCGGGDap* [KAM8-Cyclic]
binding of negative controls to A. baumannii (LOS−) compared with KAM8 (A. baumannii (LOS−) [3]): much reduced binding

ACmTLPNGPRCmGGGDap* [KAM8-Eosin]
cell killing of LOS− A. baumannii (LOS− A. baumannii; 15 min light): > 90%
killing of wild-type (LOS+) A. baumannii [6]: little killing

O=C1OC2(c3ccccc31)c1cc(Br)c(O)c(Br)c1Oc1c2cc(Br)c(O)c1Br [eosin, reference compound]
S. aureus cell death by controls (S. aureus [7]): did not elicit cell death
A. baumannii (LOS−) cell death by controls (LOS− A. baumannii): did not elicit A. baumannii cell death

ACmGPTAKYICmGGGDap* [KAM6]
S. aureus staining of control peptides (S. aureus [1]; flow cytometry): no bacterial staining
binding of negative controls to A. baumannii (LOS−) compared with KAM8 (A. baumannii (LOS−) [3]): much reduced binding

CC(=O)c1ccc(OCCCNC(=O)CSC[C@H](NC(=O)[C@H](C)N)C(=O)N[C@H](C(=O)N[C@@H](CO)C(=O)N2CCC[C@H]2C(=O)N[C@@H](CCCNC(=N)N)C(=O)N[C@@H](CO)C(=O)N[C@@H](Cc2c[nH]cn2)C(=O)N[C@@H](CCC(=O)O)C(=O)N[C@@H](CSCC(=O)NCCCOc2ccc(C(C)=O)c(B(O)O)c2)C(=O)NCC(=O)NCC(=O)NCC(=O)N[C@@H](CNC(=O)c2ccc3c(c2)C(=O)OC32c3cc(Br)c(O)c(Br)c3Oc3c2cc(Br)c(O)c3Br)C(N)=O)C(C)C)cc1B(O)O [KAM5-Eosin, ACmVSPRSHECmGGGDap*] (H-AC(X1)VSPRSHEC(X1)GGG[Dap](X2)-NH2; N-terminus assumed)
cell killing of S. aureus (S. aureus [7]; 1 μM): 74%
cell killing of S. aureus (S. aureus [7]; 2 μM): 92%
cell killing of MRSA compared with S. aureus strain used in selection (MRSA): comparable percentage of cell killing; also recorded: comparable potency
cell death of B. subtilis (B. subtilis): no significant cell death
cell death of E. coli (E. coli): no significant cell death
mammalian cell toxicity, HEK 293T cells (HEK293T cells): no mammalian cell toxicity
mammalian cell toxicity, Jurkat cells (Jurkat cells): no mammalian cell toxicity

ACAKIFTGCCGGGDap* [KAM14]
aggregation [8]: aggregation at higher concentrations

CC(=O)c1ccc(OCCCNC(=O)CSC[C@H](NC(=O)[C@H](C)N)C(=O)N[C@H](C(=O)N[C@@H](CO)C(=O)N2CCC[C@H]2C(=O)N[C@@H](CCCNC(=N)N)C(=O)N[C@@H](CO)C(=O)N[C@@H](Cc2c[nH]cn2)C(=O)N[C@@H](CCC(=O)O)C(=O)N[C@@H](CSCC(=O)NCCCOc2ccc(C(C)=O)c(B(O)O)c2)C(=O)NCC(=O)NCC(=O)NCC(=O)N[C@@H](CNC(=O)c2ccc3c(c2)C(=O)OC32c3ccc(O)cc3Oc3cc(O)ccc32)C(N)=O)C(C)C)cc1B(O)O [KAM5, ACmVSPRSHECmGGGDap*] (H-AC(X1)VSPRSHEC(X1)GGG[Dap](5FAM)-NH2; N-terminus assumed)
potency for labeling S. aureus cells compared with KAM14-17 (S. aureus [1]; flow cytometry (FIG. 18)): superior potency
S. aureus binding potency compared with Hlys-AB1 (S. aureus [1]; flow cytometry, 1 mg/mL BSA (FIG. 15)): much greater than that of Hlys-AB1
effect of BSA addition on S. aureus staining (S. aureus [2]; 2 μM peptide, BSA up to 10 mg/mL): did not inhibit
fluorescence staining of S. aureus cells (S. aureus [2]; TAMRA labeled peptide, 2 μM): strong fluorescence staining
staining of methicillin-resistant S. aureus compared with strain used in phage display [9]: equally potent staining
staining of E. coli (Escherichia coli; up to 10 μM peptide, flow cytometry with 1 mg/mL BSA and microscopy): negligible staining
staining of B. subtilis (Bacillus subtilis): negligible staining
binding to BSA (BSA): did show binding
binding to HSA (HSA): did show binding
S. aureus cell death by controls (S. aureus [7]): did not elicit cell death
